Results reported in ChEMBL document CHEMBL4477255, “Charting the chemical space around the (iso)indoline scaffold, a comprehensive approach towards multitarget directed ligands” (Bioorg Med Chem Lett, 2016).

Experiments:
Assay type in all cases: cell-based
Histamine H3 receptor [1] = target: T1, Histamine H3 receptor (Homo sapiens, UniProt Q9Y5N1); assay: Displacement of N-alpha-[methyl-3H]methylhistamine dihydrochloride from human recombinant histamine H3 receptor expressed in CHO-K1 cells at 1 uM incubated for 30 mins by liquid scintillation counting analysis
T1 sequence (Q9Y5N1 whole entry): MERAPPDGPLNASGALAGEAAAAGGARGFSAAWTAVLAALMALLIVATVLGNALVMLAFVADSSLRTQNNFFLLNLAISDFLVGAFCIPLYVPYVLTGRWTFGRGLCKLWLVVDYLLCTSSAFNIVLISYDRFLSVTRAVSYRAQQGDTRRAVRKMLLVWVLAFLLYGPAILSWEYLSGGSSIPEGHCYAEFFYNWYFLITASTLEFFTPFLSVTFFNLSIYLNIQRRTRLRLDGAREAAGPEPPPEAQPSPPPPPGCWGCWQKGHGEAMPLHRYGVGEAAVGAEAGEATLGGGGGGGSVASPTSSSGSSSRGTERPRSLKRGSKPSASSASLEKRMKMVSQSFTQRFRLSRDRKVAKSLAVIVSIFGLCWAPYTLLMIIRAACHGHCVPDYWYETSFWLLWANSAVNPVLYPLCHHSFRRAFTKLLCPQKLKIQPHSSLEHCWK

[2] = target: T2, 5-hydroxytryptamine receptor 6 (Homo sapiens, UniProt P50406); assay: Displacement of [3H]LSD from human recombinant 5-HT6 receptor expressed in CHO-K1 cells at 1 uM incubated for 3 hrs by scintillation counting analysis
T2 sequence (P50406 whole entry): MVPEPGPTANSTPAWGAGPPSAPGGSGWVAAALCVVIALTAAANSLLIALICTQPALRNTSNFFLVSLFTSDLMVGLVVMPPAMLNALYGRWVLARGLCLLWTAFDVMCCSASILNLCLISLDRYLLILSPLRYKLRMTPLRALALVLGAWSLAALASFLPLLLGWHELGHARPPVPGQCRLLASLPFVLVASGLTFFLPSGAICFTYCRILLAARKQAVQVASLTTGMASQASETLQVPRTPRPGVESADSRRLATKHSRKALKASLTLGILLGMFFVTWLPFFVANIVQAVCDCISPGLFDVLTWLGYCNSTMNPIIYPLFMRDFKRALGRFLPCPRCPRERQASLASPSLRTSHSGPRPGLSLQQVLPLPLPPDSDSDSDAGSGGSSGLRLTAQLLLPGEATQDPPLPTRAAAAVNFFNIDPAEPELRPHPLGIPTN

D(2) dopamine receptor [3] = target: T3, D(2) dopamine receptor (Homo sapiens, UniProt P14416); assay: Displacement of [3H]raclopride from human recombinant dopamine D2 long receptor expressed in CHO-K1 cells at 1 uM incubated for 120 mins by scintillation counting analysis
T3 sequence (P14416 whole entry): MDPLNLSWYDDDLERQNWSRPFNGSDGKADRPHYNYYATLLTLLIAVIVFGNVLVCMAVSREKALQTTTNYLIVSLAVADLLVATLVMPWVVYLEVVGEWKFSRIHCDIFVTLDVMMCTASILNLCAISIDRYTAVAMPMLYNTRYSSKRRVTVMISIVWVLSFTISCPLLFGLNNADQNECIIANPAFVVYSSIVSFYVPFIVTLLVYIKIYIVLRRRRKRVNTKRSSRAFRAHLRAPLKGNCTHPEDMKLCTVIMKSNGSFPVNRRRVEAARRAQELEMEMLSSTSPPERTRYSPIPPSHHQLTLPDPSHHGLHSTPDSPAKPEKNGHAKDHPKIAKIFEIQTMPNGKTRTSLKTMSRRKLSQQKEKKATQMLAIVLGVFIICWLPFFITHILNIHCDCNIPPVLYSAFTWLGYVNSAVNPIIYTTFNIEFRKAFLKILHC

[4] = target: T2, 5-hydroxytryptamine receptor 6; assay: Displacement of [3H]LSD from human recombinant 5-HT6 receptor expressed in CHO-K1 cells incubated for 3 hrs by scintillation counting analysis
D(2) dopamine receptor [5] = target: T3, D(2) dopamine receptor; assay: Displacement of [3H]raclopride from human recombinant dopamine D2 long receptor expressed in CHO-K1 cells incubated for 120 mins by scintillation counting analysis
Homo sapiens = organism: Homo sapiens; assay: Selectivity index, ratio of Ki for human recombinant dopamine D3 receptor expressed in CHO-K1 cells to Ki for dopamine D2 long receptor expressed in CHO-K1 cells
D(3) dopamine receptor [6] = target: T4, D(3) dopamine receptor (Homo sapiens, UniProt P35462); assay: Displacement of [3H]raclopride from human recombinant dopamine D3 receptor expressed in CHO-K1 cells at 1 uM incubated for 120 mins by liquid scintillation counting analysis
T4 sequence (P35462 whole entry): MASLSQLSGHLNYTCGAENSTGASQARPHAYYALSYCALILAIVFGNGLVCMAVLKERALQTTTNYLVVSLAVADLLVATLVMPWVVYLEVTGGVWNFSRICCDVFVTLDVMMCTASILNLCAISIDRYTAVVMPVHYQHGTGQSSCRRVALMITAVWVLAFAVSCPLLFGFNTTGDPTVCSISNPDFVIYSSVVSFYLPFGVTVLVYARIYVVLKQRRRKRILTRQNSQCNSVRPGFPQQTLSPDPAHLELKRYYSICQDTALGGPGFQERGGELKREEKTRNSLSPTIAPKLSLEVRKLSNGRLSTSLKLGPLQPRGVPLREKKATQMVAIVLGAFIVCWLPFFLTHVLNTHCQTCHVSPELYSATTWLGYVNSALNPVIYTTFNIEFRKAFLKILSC

D(3) dopamine receptor [7] = target: T4, D(3) dopamine receptor; assay: Displacement of [3H]raclopride from human recombinant dopamine D3 receptor expressed in CHO-K1 cells incubated for 120 mins by liquid scintillation counting analysis
Histamine H3 receptor [8] = target: T1, Histamine H3 receptor; assay: Displacement of N-alpha-[methyl-3H]methylhistamine dihydrochloride from human recombinant histamine H3 receptor expressed in CHO-K1 cells incubated for 30 mins by liquid scintillation counting analysis

SMILES	inhibition (Histamine H3 receptor [1])	inhibition [2]	inhibition (D(2) dopamine receptor [3])	Ki [4]	Ki (D(2) dopamine receptor [5])	Ratio Ki (Homo sapiens)	inhibition (D(3) dopamine receptor [6])	Ki (D(3) dopamine receptor [7])	Ki (Histamine H3 receptor [8])
CCN1CCN(c2ccc3c(c2)N(S(=O)(=O)c2ccccc2)CC3)CC1	20%	86%	77%	60 nM	136 nM	< 10	95%	16 nM	–
CCCN1CCN(c2cccc3c2CN(S(=O)(=O)c2ccccc2)C3)CC1	12%	98%	64%	4.6 nM	180 nM	–	97%	27 nM	–
CCCN1CCN(c2cccc3c2CCN3S(=O)(=O)c2ccccc2)CC1	27%	78%	87%	74 nM	42 nM	1.5	97%	17 nM	–
CN1CCN(c2ccc3c(c2)N(S(=O)(=O)c2ccccc2)CC3)CC1	-7%	92%	52%	25 nM	458 nM	< 10	72%	68 nM	–
O=S(=O)(c1ccccc1)N1CCc2ccc(C3CCN(C4CCC4)CC3)cc21	1%	62%	29%	527 nM	–	< 10	59%	362 nM	–
CCCN1CCN(c2ccc3c(c2)CCN3S(=O)(=O)c2ccccc2)CC1	39%	38%	59%	–	245 nM	–	98%	24 nM	–
O=S(=O)(c1ccccc1)N1CCc2cc(C3CCN(C4CCC4)CC3)ccc21	11%	-9%	22%	–	–	–	48%	1670 nM	–
CN1CCN(c2ccc3c(c2)CN(S(=O)(=O)c2ccccc2)C3)CC1	21%	29%	11%	–	–	–	41%	–	–
CCCN1CCN(c2ccc3c(c2)CN(S(=O)(=O)c2ccccc2)C3)CC1	38%	–	29%	–	–	–	85%	103 nM	–
O=S(=O)(c1ccccc1)N1CCc2cc(C3CCNCC3)ccc21	2%	74%	13%	175 nM	–	–	20%	–	–
O=S(=O)(c1ccccc1)N1Cc2ccc(C3CCNCC3)cc2C1	3%	54%	9%	254 nM	–	–	3%	–	–
O=S(=O)(c1ccccc1)N1Cc2cccc(C3CCN(C4CCC4)CC3)c2C1	13%	91%	49%	42 nM	1830 nM	–	-5%	–	–
CCCN1CCC(c2cccc3c2CN(S(=O)(=O)c2ccccc2)C3)CC1	4%	92%	40%	21 nM	–	–	55%	212 nM	–
O=S(=O)(c1ccccc1)N1Cc2ccc(N3CCNCC3)cc2C1	7%	46%	14%	289 nM	–	–	37%	–	–
CCN1CCC(c2ccc3c(c2)N(S(=O)(=O)c2ccccc2)CC3)CC1	11%	95%	39%	23 nM	–	< 10	86%	95 nM	–
O=S(=O)(c1ccccc1)N1Cc2cccc(N3CCN(C4CCC4)CC3)c2C1	16%	98%	47%	4.8 nM	1590 nM	–	72%	525 nM	–
CN1CCN(c2cccc3c2CCN3S(=O)(=O)c2ccccc2)CC1	17%	96%	67%	8.2 nM	211 nM	1.5	77%	173 nM	–
O=S(=O)(c1ccccc1)N1Cc2ccc(C3CCN(C4CCC4)CC3)cc2C1	28%	-10%	25%	–	–	–	24%	–	–
CCN1CCC(c2ccc3c(c2)CN(S(=O)(=O)c2ccccc2)C3)CC1	48%	4%	18%	–	–	–	32%	–	302 nM
CN1CCC(c2ccc3c(c2)N(S(=O)(=O)c2ccccc2)CC3)CC1	3%	93%	34%	25 nM	–	< 10	75%	121 nM	–
CCCN1CCN(c2ccc3c(c2)N(S(=O)(=O)c2ccccc2)CC3)CC1	16%	82%	80%	125 nM	95 nM	< 10	99%	5.7 nM	–

SMILES	inhibition (Histamine H3 receptor [1])	inhibition [2]	inhibition (D(2) dopamine receptor [3])	Ki [4]	Ki (D(2) dopamine receptor [5])	Ratio Ki (Homo sapiens)	inhibition (D(3) dopamine receptor [6])	Ki (D(3) dopamine receptor [7])	Ki (Histamine H3 receptor [8])
O=S(=O)(c1ccccc1)N1CCc2cc(N3CCNCC3)ccc21	4%	90%	18%	20 nM	–	–	75%	133 nM	–
CCCN1CCC(c2ccc3c(c2)CN(S(=O)(=O)c2ccccc2)C3)CC1	27%	26%	16%	–	–	–	48%	712 nM	–
CCN1CCN(c2cccc3c2CN(S(=O)(=O)c2ccccc2)C3)CC1	17%	98%	55%	28 nM	310 nM	–	92%	73 nM	–
CCCN1CCC(c2ccc3c(c2)CCN3S(=O)(=O)c2ccccc2)CC1	22%	39%	35%	–	–	–	79%	227 nM	–
CCN1CCC(c2cccc3c2CN(S(=O)(=O)c2ccccc2)C3)CC1	3%	98%	27%	2.3 nM	–	–	53%	562 nM	–
O=S(=O)(c1ccccc1)N1CCc2cc(N3CCN(C4CCC4)CC3)ccc21	36%	28%	24%	–	–	–	68%	208 nM	–
CCCN1CCC(c2ccc3c(c2)N(S(=O)(=O)c2ccccc2)CC3)CC1	14%	81%	59%	71 nM	324 nM	< 10	98%	26 nM	–
O=S(=O)(c1ccccc1)N1Cc2ccc(N3CCN(C4CCC4)CC3)cc2C1	74%	1%	1%	–	–	–	34%	–	395 nM
O=S(=O)(c1ccccc1)N1CCc2ccc(C3CCNCC3)cc21	-6%	91%	27%	2.7 nM	–	< 10	49%	517 nM	–
CN1CCC(c2ccc3c(c2)CN(S(=O)(=O)c2ccccc2)C3)CC1	41%	56%	19%	556 nM	–	–	34%	–	–
O=S(=O)(c1ccccc1)N1CCc2ccc(N3CCNCC3)cc21	4%	95%	32%	12 nM	–	< 10	58%	330 nM	–
CN1CCN(c2ccc3c(c2)CCN3S(=O)(=O)c2ccccc2)CC1	35%	84%	18%	440 nM	–	–	85%	108 nM	–
O=S(=O)(c1ccccc1)N1Cc2cccc(N3CCNCC3)c2C1	11%	98%	29%	1.9 nM	–	–	61%	505 nM	–
CCN1CCC(c2ccc3c(c2)CCN3S(=O)(=O)c2ccccc2)CC1	54%	40%	17%	–	–	–	72%	321 nM	448 nM
CN1CCC(c2cccc3c2CCN3S(=O)(=O)c2ccccc2)CC1	10%	87%	35%	45 nM	–	–	13%	–	–
O=S(=O)(c1ccccc1)N1CCc2c(N3CCNCC3)cccc21	3%	97%	22%	118 nM	–	–	40%	–	–
O=S(=O)(c1ccccc1)N1CCc2ccc(N3CCN(C4CCC4)CC3)cc21	36%	60%	50%	186 nM	411 nM	< 10	78%	173 nM	–
CN1CCN(c2cccc3c2CN(S(=O)(=O)c2ccccc2)C3)CC1	19%	100%	43%	2.6 nM	–	–	85%	160 nM	–
CCCN1CCC(c2cccc3c2CCN3S(=O)(=O)c2ccccc2)CC1	-5%	45%	38%	1030 nM	–	–	56%	383 nM	–
O=S(=O)(c1ccccc1)N1CCc2c(C3CCNCC3)cccc21	-5%	83%	10%	13 nM	–	–	6%	–	–
